From PubChem BioAssay (NCI)
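Test compounds were applied to cells in 96-well plates for 48 hours at 5 doses. TGI marks complete inhibition of growth.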

Legend:
Assay in all cases: inhibition of tumour cell growth, NCI panel, 48 h
DU-145 prostate = test system: DU-145 prostate
HS 578T breast = test system: HS 578T breast
A549 NSCLC = test system: A549 NSCLC
M14 melanoma = test system: M14 melanoma
786-0 renal = test system: 786-0 renal
PC-3 prostate = test system: PC-3 prostate
IGROV1 ovarian = test system: IGROV1 ovarian
EKVX NSCLC = test system: EKVX NSCLC
SK-OV-3 ovarian = test system: SK-OV-3 ovarian
HOP-92 NSCLC = test system: HOP-92 NSCLC
SNB-75 CNS = test system: SNB-75 CNS
KM12 colon = test system: KM12 colon
K-562 leukemia = test system: K-562 leukemia
U251 CNS = test system: U251 CNS
NCI-H522 lung = test system: NCI-H522 lung
MOLT-4 leukemia = test system: MOLT-4 leukemia
LOX IMVI melanoma = test system: LOX IMVI melanoma
NCI-H226 lung = test system: NCI-H226 lung
SK-MEL-2 melanoma = test system: SK-MEL-2 melanoma
ACHN renal = test system: ACHN renal
SF-268 CNS = test system: SF-268 CNS
SF-539 CNS = test system: SF-539 CNS
CCRF-CEM leukemia = test system: CCRF-CEM leukemia
MDA-MB-231 breast = test system: MDA-MB-231 breast
SK-MEL-28 melanoma = test system: SK-MEL-28 melanoma
CAKI-1 renal = test system: CAKI-1 renal
COLO 205 colon = test system: COLO 205 colon
OVCAR-3 ovarian = test system: OVCAR-3 ovarian
SN12C renal = test system: SN12C renal
HCT-116 colon = test system: HCT-116 colon
HT29 colon = test system: HT29 colon
SW-620 colon = test system: SW-620 colon
MCF7 breast = test system: MCF7 breast
HL-60(TB) leukemia = test system: HL-60(TB) leukemia
SF-295 CNS = test system: SF-295 CNS
TK-10 renal = test system: TK-10 renal
A498 renal = test system: A498 renal
RXF 393 renal = test system: RXF 393 renal
T-47D breast = test system: T-47D breast
SNB-19 CNS = test system: SNB-19 CNS
OVCAR-5 ovarian = test system: OVCAR-5 ovarian
SR leukemia = test system: SR leukemia
MDA-N = test system: MDA-N
HOP-62 NSCLC = test system: HOP-62 NSCLC
OVCAR-4 ovarian = test system: OVCAR-4 ovarian
SK-MEL-5 melanoma = test system: SK-MEL-5 melanoma
RPMI-8226 leukemia = test system: RPMI-8226 leukemia
MDA-MB-435 = test system: MDA-MB-435
UO-31 renal = test system: UO-31 renal
MALME-3M melanoma = test system: MALME-3M melanoma
OVCAR-8 ovarian = test system: OVCAR-8 ovarian
UACC-257 melanoma = test system: UACC-257 melanoma
NCI-H460 lung = test system: NCI-H460 lung
HCT-15 colon = test system: HCT-15 colon
NCI/ADR-RES ovarian = test system: NCI/ADR-RES ovarian
BT-549 breast = test system: BT-549 breast
NCI-H23 lung = test system: NCI-H23 lung
HCC-2998 colon = test system: HCC-2998 colon
UACC-62 melanoma = test system: UACC-62 melanoma

Measured: TGI

COC(=O)/C=C(\CC(=O)OC)n1nnnc1[C@@H]1C[C@H](COC(c2ccccc2)(c2ccccc2)c2ccccc2)[C@H]2OC(C)(C)O[C@H]21
not listed: NCI-H460 lung | HCT-15 colon | NCI/ADR-RES ovarian | BT-549 breast | NCI-H23 lung | HCC-2998 colon | UACC-62 melanoma
> 100 µM: all other assays above

NNC(=O)c1c(-c2cccnc2)cnc2ccccc12
not listed: HS 578T breast | LOX IMVI melanoma | MDA-MB-231 breast | A498 renal | T-47D breast | MDA-MB-435
> 100 µM: all other assays above
